Data as given in patent publication EP3431468B1, “USE OF ADIPONECTIN RECEPTOR AGONISTS IN TREATING DEPRESSION, ANXIETY AND NEUROINFLAMMATION” (CENTRE NATIONAL DE LA RECHERCHE SCIENTIFIQUE, priority 2017, dated 2019).

How the values were obtained:
Format in all cases: in vivo
wt mice [1] = assay: Open-field test (OF), locomotor activity; conditions: chronic ip 1mg/kg for twenty consecutive days, 10 minutes recording
Description: (§1) All behavioral testing were conducted during the light phase (between 09:00 and 14:00 am) in compliance with the Institutional Animal Care and Use Committee of the University of Nice-Sophia Antipolis (permission number 010344.01 from the French "Ministère de l'Enseignement Supérieur et de la Recherche" granted to Dr. Joëlle Chabry). • Forced Swimming test (FST) - Mice were placed an inescapable transparent tank (20cm diameter, 30cm deep) filled with water (23°C ± 0.5) for six minutes as previously described by Porsolt et al. (1977). The immobility duration, as an index of the resignation, was timed during the last four minutes of the test. A mouse was considered immobile when it remained floating with only slight movements to keep its head out of the water. • Open-field test (OF) - Locomotor activity was determined using open-field (OF) activity. […] Twenty-four hours later, the latency to fall, an index of the motor coordination, was recorded on accelerating rod (from 10 to 40 rpm/min). • Light & Dark test (L&D) - The L&D place preference test was used to assess the anxiety-like behavior. […] To initiate testing, mice were placed into the light side and activity was recorded for 5 minutes. […] The amount of water and 1% sucrose solution was measured twenty-four hours later. […]

wt mice [2] = assay: Rotarod, motor coordination; conditions: chronic ip 1mg/kg for twenty consecutive days
Description: as §1

[3] = system: pro-inflammatory cytokines (IL1β, IL6, TNFα, IFNγ); assay: Pro-inflammatory cytokines measurement in brain areas (ECL-based assay); conditions: corticosterone-treated mice, chronic AdipoRon
Description: Data were digitized at 5-10 kHz using a Digidata interface coupled to a microcomputer running pClamp 9 (Axon Instruments, USA). Current-clamp data were digitized at 0.5 kHz using the same interface. Potentials were digitally filtered at 1-3 kHz. Average data were expressed as mean ± SEM, n = number of neurons, N = number of mice. • Western blot analysis - Total proteins were extracted from mouse hypothalamus by homogenization in lysis buffer (50mM Tris-HCl, pH7.5, 150mM NaCl, 5mM EDTA containing 0.5% Triton X-100 and 0.5% sodium deoxycholate with a coktail of protease and phosphatase inhibitors). Equal amounts of total proteins (50µg) determined by the Bradford method (BioRad) were separated onto 12% SDS-PAGE, then transferred on nitrocellulose membrane (Schleicher & Schuell, Dassel, Germany). Blots were incubated in PBS 0.1% Tween, 2% BSA with antibodies directed against phospho-AMPKα (Thr172), total AMPK (Cell Signaling), and then with the appropriate HRP-secondary antibody. […] IFNγ, IL1β, IL6, and TNFα, levels were measured using an electro-chemo-luminescence (ECL)-based assay (U-plex, MesoScaleDiscovery) following manufacturer instructions. Results were standardized according to the protein concentration of each sample determined by the Bradford method. • Kynurenine pathway metabolites measurement - Plasma levels of L-kynurenin (L-Kyn), tryptophan (Trp), kynurenin acid (Kyn ac), 5-HT and 5-HIAA were determined as follows: 25µl of plasma was deproteinated with 150µl of cold MeOH. […] Determination of L-Kyn, Trp, Kyn ac, 5-HT and 5-HIAA levels, done in triplicate, were determined by liquid chromatography coupled to MS-MS analysis as previously described with minor modifications (Fuertig, Ceci et al. 2016). • Statistical Analysis - Statistical analyses were performed using GraphPad Prism 4.0 software. Biological parameters and q-PCR data were analyzed using a one-way (treatment) or two-way (pretreatment X treatment) analysis of variance, followed by a post-hoc multiple comparison procedure using the Dunnett's method. […]

O=C(COc1ccc(C(=O)c2ccccc2)cc1)NC1CCN(Cc2ccccc2)CC1 [AdipoRon, 2-(4-Benzoylphenoxy)-N-[1-(phenylmethyl)-4-piperidinyl]-acetamide]
mean speed in the OF test (wt mice [1]): did not significantly modify | total distance traveled in the OF test (wt mice [1]): did not significantly modify | motor coordination (rotarod) (wt mice [2]): did not significantly modify | corticosterone-induced cytokines differences (IFNγ) ([3]; hippocampus): abolished | corticosterone-induced cytokines differences (IL1β, TNFα, IFNγ) ([3]; hypothalamus): abolished | corticosterone-induced cytokines differences (IL1β, IL6, TNFα) ([3]; prefrontal cortex): abolished
